Measured values published in patent publication US20220073536A1 (Rigel Pharmaceuticals, Inc., priority 2003, published 2022).
Like-named read-outs stand apart in the source and are kept apart here.

Tested on: cultured human mast cells (CHMC)
Experiment: CHMC low cell density IgE activation: tryptase assay
Assay type: cell-based
Details: low cell density CHMC, IgE activation, tryptase
Method in brief: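 CHMC at 1000–1500 cells/well were preincubated 1 hr at 37° C., stimulated with anti-IgE for 30 minutes at 37° C., then pelleted. Supernatant tryptase was measured with a fluorogenic substrate after 30 min at room temperature, against un-stimulated control wells.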

[1] = Homo sapiens, Mast cell, 3 pt, read-out: LD Tryptase, CHMC, IgE, 3 pt
[2] = Homo sapiens, Mast cell, 8 pt, read-out: LD Tryptase, CHMC, IgE, 8 pt

SMILES | IC50 [1] | IC50 [2] | also measured
COc1ccc(Nc2nc(Nc3ccc4cnn(CC5CCCCC5)c4c3)ncc2F)cc1Cl [Compound 722, N4-(3-Chloro-4-methoxyphenyl)-N2-[1-(cyclohexylmethyl)indazol-6-yl]-5-fluoro-2,4-pyrimidinediamine] | < 10 µM | < 10 µM | 
Fc1cnc(Nc2ccc3cnn(CC4CCCCC4)c3c2)nc1Nc1ccc(Cl)c(Cl)c1 [Compound 723, N2-[1-(Cyclohexylmethyl)indazol-6-yl]-N4-(3,4-dichlorophenyl)-5-fluoro-2,4-pyrimidinediamine] | > 10 µM |  | 
CC1(C)Oc2ccc(Nc3nc(Nc4ccc5cnn(CC6CCCCC6)c5c4)ncc3F)cc2NC1=O [Compound 724, N2-[1-(Cyclohexylmethyl)indazol-6-yl]-N4-(2,2-dimethyl-3-oxo-4H-benz[1,4]oxazin-6-yl)-5-fluoro-2,4-pyrimidinediamine] |  | < 10 µM | 
COc1cc(Nc2nc(Nc3ccc4cnn(CC5CCCCC5)c4c3)ncc2F)ccc1F [Compound 725, N2-[1-(Cyclohexylmethyl)indazol-6-yl)-5-fluoro-N4-(4-fluoro-3-methoxyphenyl)-2,4-pyrimidinediamine] | < 10 µM |  | 
COc1ccc(Nc2nc(Nc3ccc4c(cnn4CC4CCC4)c3)ncc2F)cc1Cl [Compound 726, N4-(3-Chloro-4-methoxyphenyl)-N2-[1-(cyclobutylmethyl)indazol-5-yl]-5-fluoro-2,4-pyrimidinediamine] | < 10 µM |  | 
Fc1cnc(Nc2ccc3c(cnn3CC3CCC3)c2)nc1Nc1ccc(Cl)c(Cl)c1 [Compound 727, N2-[1-(Cyclobutylmethyl)indazol-5-yl]-N4-(3,4-dichlorophenyl)-5-fluoro-2,4-pyrimidinediamine] | < 10 µM |  | 
CC1(C)Oc2ccc(Nc3nc(Nc4ccc5c(cnn5CC5CCC5)c4)ncc3F)cc2NC1=O [Compound 728, N2-[1-(Cyclobutylmethyl)indazol-5-yl]-N4-(2,2-dimethyl-3-oxo-4H-benz[1,4]oxazin-6-yl)-5-fluoro-2,4-pyrimidinediamine] |  | < 10 µM | 
COc1cc(Nc2nc(Nc3ccc4c(cnn4CC4CCC4)c3)ncc2F)ccc1F [Compound 729, N2-[1-(Cyclobuylmethyl)indazol-5-yl)-5-fluoro-N4-(4-fluoro-3-methoxyphenyl)-2,4-pyrimidinediamine] |  |  | IC50 (8 pt, read-out: LD Tryptase, CHMC, IgE, 8 pt): < 10 µM
COc1ccc(Nc2nc(Nc3ccc4cnn(CC5CCC5)c4c3)ncc2F)cc1Cl [Compound 730, N4-(3-Chloro-4-methoxyphenyl)-N2-[1-(cyclobutylmethyl)indazol-6-yl]-5-fluoro-2,4-pyrimidinediamine] | < 10 µM |  | 
Fc1cnc(Nc2ccc3cnn(CC4CCC4)c3c2)nc1Nc1ccc(Cl)c(Cl)c1 [Compound 731, N2-[1-(Cyclobutylmethyl)indazol-6-yl]-N4-(3,4-dichlorophenyl)-5-fluoro-2,4-pyrimidinediamine] | < 10 µM |  | 
CC1(C)Oc2ccc(Nc3nc(Nc4ccc5cnn(CC6CCC6)c5c4)ncc3F)cc2NC1=O [Compound 732, N2-[1-(Cyclobutylmethyl)indazol-6-yl]-N4-(2,2-dimethyl-3-oxo-4H-benz[1,4]oxazin-6-yl)-5-fluoro-2,4-pyrimidinediamine] |  | < 10 µM | 
COc1cc(Nc2nc(Nc3ccc4cnn(CC5CCC5)c4c3)ncc2F)ccc1F [Compound 733, N2-[1-(Cyclobuylmethyl)indazol-6-yl)-5-fluoro-N4-(4-fluoro-3-methoxyphenyl)-2,4-pyrimidinediamine] |  |  | IC50 (3 pt, read-out: LD Tryptase, CHMC, IgE, 3 pt): < 10 µM
COc1ccc(Nc2nc(Nc3ccc4c(cnn4CC4CC4)c3)ncc2F)cc1Cl [Compound 734, N4-(3-Chloro-4-methoxyphenyl)-N2-[1-(cyclopropylmethyl)indazol-5-yl]-5-fluoro-2,4-pyrimidinediamine] |  | < 10 µM | 
Fc1cnc(Nc2ccc3c(cnn3CC3CC3)c2)nc1Nc1ccc(Cl)c(Cl)c1 [Compound 735, N2-[1-(Cyclopropylmethyl)indazol-5-yl]-N4-(3,4-dichlorophenyl)-5-fluoro-2,4-pyrimidinediamine] | < 10 µM |  | 

More lines, main results first:

IC50 [1] | IC50 [2] | SMILES | also measured
 | < 10 µM | CC1(C)Oc2ccc(Nc3nc(Nc4ccc5c(cnn5CC5CC5)c4)ncc3F)cc2NC1=O [Compound 736, N2-[1-(Cyclopropylmethyl)indazol-5-yl]-N4-(2,2-dimethyl-3-oxo-4H-benz[1,4]oxazin-6-yl)-5-fluoro-2,4-pyrimidinediamine] | 
 | < 10 µM | COc1cc(Nc2nc(Nc3ccc4c(cnn4CC4CC4)c3)ncc2F)ccc1F [Compound 737, N2-[1-(Cyclopropylmethyl)indazol-5-yl)-5-fluoro-N4-(4-fluoro-3-methoxyphenyl)-2,4-pyrimidinediamine] | 
 | < 10 µM | COc1ccc(Nc2nc(Nc3ccc4cnn(CC5CC5)c4c3)ncc2F)cc1Cl [Compound 738, N4-(3-Chloro-4-methoxyphenyl)-N2-[1-(cyclopropylmethyl)indazol-6-yl]-5-fluoro-2,4-pyrimidinediamine] | 
< 10 µM |  | Fc1cnc(Nc2ccc3cnn(CC4CC4)c3c2)nc1Nc1ccc(Cl)c(Cl)c1 [Compound 739, N2-[1-(Cyclopropylmethyl)indazol-6-yl]-N4-(3,4-dichlorophenyl)-5-fluoro-2,4-pyrimidinediamine] | 
 | < 10 µM | CC1(C)Oc2ccc(Nc3nc(Nc4ccc5cnn(CC6CC6)c5c4)ncc3F)cc2NC1=O [Compound 740, N2-[1-(Cyclopropylmethyl)indazol-6-yl]-N4-(2,2-dimethyl-3-oxo-4H-benz[1,4]oxazin-6-yl)-5-fluoro-2,4-pyrimidinediamine] | 
 | < 10 µM | COc1cc(Nc2nc(Nc3ccc4cnn(CC5CC5)c4c3)ncc2F)ccc1F [Compound 741, N2-[1-(Cyclopropylmethyl)indazol-6-yl)-5-fluoro-N4-(4-fluoro-3-methoxyphenyl)-2,4-pyrimidinediamine] | 
< 10 µM | < 10 µM | COc1ccc(Nc2nc(Nc3ccc4c(cnn4C4CCCCC4)c3)ncc2F)cc1Cl [Compound 742, N4-(3-Chloro-4-methoxyphenyl)-N2-(1-cyclohexylindazol-5-yl)-5-fluoro-2,4-pyrimidinediamine] | 
< 10 µM |  | Fc1cnc(Nc2ccc3c(cnn3C3CCCCC3)c2)nc1Nc1ccc(Cl)c(Cl)c1 [Compound 743, N2-(1-Cyclohexylindazol-5-yl)-N4-(3,4-dichlorophenyl)-5-fluoro-2,4-pyrimidinediamine] | 
 | < 10 µM | CC1(C)Oc2ccc(Nc3nc(Nc4ccc5c(cnn5C5CCCCC5)c4)ncc3F)cc2NC1=O [Compound 744, N2-(1-Cyclohexylindazol-5-yl)-N4-(2,2-dimethyl-3-oxo-4H-benz[1,4]oxazin-6-yl)-5-fluoro-2,4-pyrimidinediamine] | 
< 10 µM |  | COc1cc(Nc2nc(Nc3ccc4c(cnn4C4CCCCC4)c3)ncc2F)ccc1F [Compound 745, N2-(1-Cyclohexylindazol-5-yl)-5-fluoro-N4-(4-fluoro-3-methoxyphenyl)-2,4-pyrimidinediamine] | 
< 10 µM |  | COc1ccc(Nc2nc(Nc3ccc4cnn(C5CCCCC5)c4c3)ncc2F)cc1Cl [Compound 746, N4-(3-Chloro-4-methoxyphenyl)-N2-(1-cyclohexylindazol-6-yl)-5-fluoro-2,4-pyrimidinediamine] | 
< 10 µM |  | Fc1cnc(Nc2ccc3cnn(C4CCCCC4)c3c2)nc1Nc1ccc(Cl)c(Cl)c1 [Compound 747, N2-(1-Cyclohexylindazol-6-yl)-N4-(3,4-dichlorophenyl)-5-fluoro-2,4-pyrimidinediamine] | 
